From patent EP4745135A1 (Gluetacs Therapeutics (Shanghai) Co., Ltd., priority 2023, dated 2025)

Tests used:
GSPT1 = assay: Western blot, degradation of substrate protein in hPBMCs; type: cell-based, Human; details: Western blot, 24 hours of compound treatment, compounds tested at 50 nM and 500 nM (concentration for the table not stated)
IKZF3 = target: T1, IKZF3 (Homo sapiens, UniProt Q96SW2+Q9UKT9); assay: as above; type: cell-based; details: Western blot, 24 hours of compound treatment, compounds tested at 50 nM and 500 nM (concentration for the table not stated)
T1 construct: effects of the compounds of the present disclosure on the expression of target proteins in cells; endogenous in cells; host or cells: human PBMCs (Milecell Biotechnologies)

IKZF1 = target: T2, IKZF1 (Homo sapiens, UniProt Q13422+Q96SW2); assay: as above; type: cell-based; details: Western blot, 24 hours of compound treatment, compounds tested at 50 nM and 500 nM (concentration for the table not stated)
T2 construct: effects of the compounds of the present disclosure on the expression of target proteins in cells; endogenous in cells; host or cells: human PBMCs (Milecell Biotechnologies)

IKZF2 = target: T3, IKZF2 (Homo sapiens, UniProt Q96SW2+Q9UKS7); assay: as above; type: cell-based; details: Western blot, 24 hours of compound treatment, compounds tested at 50 nM and 500 nM (concentration for the table not stated)
T3 construct: effects of the compounds of the present disclosure on the expression of target proteins in cells; endogenous in cells; host or cells: human PBMCs (Milecell Biotechnologies)

WEE1 = target: T4, WEE1 (Homo sapiens, UniProt P30291+Q96SW2); assay: as above; type: cell-based; details: Western blot, 24 hours of compound treatment, compounds tested at 50 nM and 500 nM (concentration for the table not stated)
T4 construct: effects of the compounds of the present disclosure on the expression of target proteins in cells; endogenous in cells; host or cells: human PBMCs (Milecell Biotechnologies)

CK1α = target: T5, CK1α (Homo sapiens, UniProt P48729+Q96SW2); assay: as above; type: cell-based; details: Western blot, 24 hours of compound treatment, compounds tested at 50 nM and 500 nM (concentration for the table not stated)
T5 construct: effects of the compounds of the present disclosure on the expression of target proteins in cells; endogenous in cells; host or cells: human PBMCs (Milecell Biotechnologies)

[1] = target: T6, human Cereblon WT GST-tagged protein (Homo sapiens, UniProt Q96SW2); assay: CRBN-binding affinity, HTRF (CEREBLON BINDING kit); details: for inhibition at 0.5 µM: read-out: Inhibition Rate at 0.5 µM (%); for inhibition at 2 µM: read-out: Inhibition Rate at 2 µM (%)
T6 construct: purchased CISBIO 64BDCRBNPEH
T6 sequence (Q96SW2 whole entry): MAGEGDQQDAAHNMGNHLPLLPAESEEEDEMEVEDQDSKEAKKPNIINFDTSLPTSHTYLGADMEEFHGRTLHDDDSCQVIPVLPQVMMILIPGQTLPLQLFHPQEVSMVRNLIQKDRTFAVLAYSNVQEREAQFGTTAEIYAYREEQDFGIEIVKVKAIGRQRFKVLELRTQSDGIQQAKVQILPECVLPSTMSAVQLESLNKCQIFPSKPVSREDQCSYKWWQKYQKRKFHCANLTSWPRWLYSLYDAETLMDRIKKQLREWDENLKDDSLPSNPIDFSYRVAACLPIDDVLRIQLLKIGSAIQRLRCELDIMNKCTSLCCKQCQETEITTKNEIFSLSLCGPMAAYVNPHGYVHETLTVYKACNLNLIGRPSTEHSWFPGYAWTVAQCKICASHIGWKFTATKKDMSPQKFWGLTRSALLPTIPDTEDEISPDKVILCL

T4 sequence (P30291 whole entry): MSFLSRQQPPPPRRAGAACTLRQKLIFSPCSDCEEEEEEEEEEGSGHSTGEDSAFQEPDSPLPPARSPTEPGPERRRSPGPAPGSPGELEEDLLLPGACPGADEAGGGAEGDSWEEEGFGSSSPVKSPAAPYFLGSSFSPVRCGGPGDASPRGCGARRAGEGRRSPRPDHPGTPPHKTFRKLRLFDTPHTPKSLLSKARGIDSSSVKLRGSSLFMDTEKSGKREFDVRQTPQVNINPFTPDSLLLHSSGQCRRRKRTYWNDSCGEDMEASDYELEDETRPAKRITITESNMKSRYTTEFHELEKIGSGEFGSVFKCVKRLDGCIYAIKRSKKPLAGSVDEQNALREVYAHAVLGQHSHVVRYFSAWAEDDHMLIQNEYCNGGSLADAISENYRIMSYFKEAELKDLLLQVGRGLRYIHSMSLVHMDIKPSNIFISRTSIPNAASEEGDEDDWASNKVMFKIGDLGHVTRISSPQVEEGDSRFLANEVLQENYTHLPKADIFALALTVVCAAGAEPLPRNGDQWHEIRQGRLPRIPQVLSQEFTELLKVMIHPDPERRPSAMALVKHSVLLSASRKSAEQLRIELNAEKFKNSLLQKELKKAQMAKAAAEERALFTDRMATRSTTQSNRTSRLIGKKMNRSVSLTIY
T4 sequence (Q96SW2 whole entry): as the sequence (Q96SW2 whole entry) above
T4 sequence (Q16531 whole entry partner): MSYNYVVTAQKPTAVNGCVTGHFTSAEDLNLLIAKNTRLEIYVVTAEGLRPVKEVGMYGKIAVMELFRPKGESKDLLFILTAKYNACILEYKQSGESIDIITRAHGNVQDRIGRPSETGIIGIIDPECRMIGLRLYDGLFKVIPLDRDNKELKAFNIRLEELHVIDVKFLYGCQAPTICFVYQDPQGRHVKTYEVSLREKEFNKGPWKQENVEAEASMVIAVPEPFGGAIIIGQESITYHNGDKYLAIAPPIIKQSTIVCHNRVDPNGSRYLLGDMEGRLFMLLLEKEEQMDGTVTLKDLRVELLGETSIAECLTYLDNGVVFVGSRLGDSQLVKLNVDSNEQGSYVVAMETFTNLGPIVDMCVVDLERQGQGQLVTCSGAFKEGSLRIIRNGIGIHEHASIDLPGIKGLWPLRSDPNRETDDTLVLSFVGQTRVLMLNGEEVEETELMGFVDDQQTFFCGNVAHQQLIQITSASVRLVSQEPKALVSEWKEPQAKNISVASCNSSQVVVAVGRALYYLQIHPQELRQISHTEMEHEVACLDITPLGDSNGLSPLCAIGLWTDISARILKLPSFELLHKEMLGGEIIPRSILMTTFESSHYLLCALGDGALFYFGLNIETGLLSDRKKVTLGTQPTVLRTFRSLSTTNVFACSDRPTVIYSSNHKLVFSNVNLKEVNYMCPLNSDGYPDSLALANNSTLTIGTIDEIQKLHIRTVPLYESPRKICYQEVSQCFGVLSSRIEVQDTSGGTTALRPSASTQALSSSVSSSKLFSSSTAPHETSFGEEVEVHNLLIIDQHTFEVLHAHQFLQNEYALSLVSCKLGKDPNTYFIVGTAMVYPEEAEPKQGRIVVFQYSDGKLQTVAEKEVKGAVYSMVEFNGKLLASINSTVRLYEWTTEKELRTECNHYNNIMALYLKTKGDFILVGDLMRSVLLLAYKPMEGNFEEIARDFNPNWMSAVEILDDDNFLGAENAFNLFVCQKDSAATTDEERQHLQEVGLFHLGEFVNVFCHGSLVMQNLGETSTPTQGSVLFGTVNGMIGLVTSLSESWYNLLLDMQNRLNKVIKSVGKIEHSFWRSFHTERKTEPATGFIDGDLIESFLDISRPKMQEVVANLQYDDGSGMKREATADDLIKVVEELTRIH
T5 sequence (P48729 whole entry): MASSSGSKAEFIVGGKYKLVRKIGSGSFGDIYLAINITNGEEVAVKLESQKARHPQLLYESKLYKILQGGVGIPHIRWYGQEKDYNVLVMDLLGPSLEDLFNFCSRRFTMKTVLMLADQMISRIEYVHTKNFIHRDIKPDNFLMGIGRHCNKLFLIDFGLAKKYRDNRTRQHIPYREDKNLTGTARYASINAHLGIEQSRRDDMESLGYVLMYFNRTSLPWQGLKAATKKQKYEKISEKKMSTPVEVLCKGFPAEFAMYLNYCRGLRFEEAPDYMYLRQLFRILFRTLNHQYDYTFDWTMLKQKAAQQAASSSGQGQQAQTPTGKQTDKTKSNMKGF
T5 sequence (Q96SW2 whole entry): as the sequence (Q96SW2 whole entry) above
T5 sequence (Q16531 whole entry partner): as the sequence (Q16531 whole entry partner) above
T3 sequence (Q9UKS7 whole entry): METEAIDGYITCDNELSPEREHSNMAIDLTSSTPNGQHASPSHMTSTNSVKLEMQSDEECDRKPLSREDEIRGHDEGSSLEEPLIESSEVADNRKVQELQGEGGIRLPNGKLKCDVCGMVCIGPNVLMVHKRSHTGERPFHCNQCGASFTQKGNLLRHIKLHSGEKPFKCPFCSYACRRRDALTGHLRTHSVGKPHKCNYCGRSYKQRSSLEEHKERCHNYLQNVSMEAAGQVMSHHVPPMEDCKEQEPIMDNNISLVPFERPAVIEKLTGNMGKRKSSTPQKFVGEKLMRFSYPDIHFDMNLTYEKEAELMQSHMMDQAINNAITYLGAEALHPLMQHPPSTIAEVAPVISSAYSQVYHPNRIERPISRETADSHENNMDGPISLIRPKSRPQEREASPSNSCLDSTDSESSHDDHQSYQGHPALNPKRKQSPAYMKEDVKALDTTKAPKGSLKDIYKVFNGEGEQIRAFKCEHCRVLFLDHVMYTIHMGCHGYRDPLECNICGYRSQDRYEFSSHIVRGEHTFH
T3 sequence (Q96SW2 whole entry): as the sequence (Q96SW2 whole entry) above
T3 sequence (Q16531 whole entry partner): as the sequence (Q16531 whole entry partner) above
T1 sequence (Q9UKT9 whole entry): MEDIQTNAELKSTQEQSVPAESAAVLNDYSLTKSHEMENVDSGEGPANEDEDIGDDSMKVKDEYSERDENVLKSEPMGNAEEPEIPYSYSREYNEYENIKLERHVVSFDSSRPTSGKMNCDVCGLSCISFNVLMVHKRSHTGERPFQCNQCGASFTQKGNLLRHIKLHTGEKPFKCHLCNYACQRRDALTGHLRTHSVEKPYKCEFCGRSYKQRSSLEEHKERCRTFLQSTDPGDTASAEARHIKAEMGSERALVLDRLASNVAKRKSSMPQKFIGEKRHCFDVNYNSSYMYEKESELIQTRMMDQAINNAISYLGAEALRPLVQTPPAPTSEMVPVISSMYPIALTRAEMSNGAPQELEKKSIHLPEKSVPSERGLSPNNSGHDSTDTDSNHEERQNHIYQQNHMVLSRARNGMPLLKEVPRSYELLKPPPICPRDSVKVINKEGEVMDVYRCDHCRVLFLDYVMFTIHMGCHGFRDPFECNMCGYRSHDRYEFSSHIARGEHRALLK
T1 sequence (Q96SW2 whole entry): as the sequence (Q96SW2 whole entry) above
T1 sequence (Q16531 whole entry partner): as the sequence (Q16531 whole entry partner) above
T2 sequence (Q13422 whole entry): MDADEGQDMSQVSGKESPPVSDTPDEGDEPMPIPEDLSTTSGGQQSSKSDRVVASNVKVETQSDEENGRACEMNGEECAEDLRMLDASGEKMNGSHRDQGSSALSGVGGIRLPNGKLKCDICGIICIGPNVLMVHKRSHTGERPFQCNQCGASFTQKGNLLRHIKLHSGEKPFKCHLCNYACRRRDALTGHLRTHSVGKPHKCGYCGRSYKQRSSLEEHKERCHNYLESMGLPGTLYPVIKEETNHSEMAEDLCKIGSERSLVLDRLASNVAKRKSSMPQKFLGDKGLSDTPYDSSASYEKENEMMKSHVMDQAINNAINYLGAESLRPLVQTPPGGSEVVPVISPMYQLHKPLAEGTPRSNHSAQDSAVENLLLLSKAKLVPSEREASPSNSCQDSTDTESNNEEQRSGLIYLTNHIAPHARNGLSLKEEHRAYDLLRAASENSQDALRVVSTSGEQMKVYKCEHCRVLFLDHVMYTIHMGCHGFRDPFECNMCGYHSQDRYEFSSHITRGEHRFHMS
T2 sequence (Q96SW2 whole entry): as the sequence (Q96SW2 whole entry) above
T2 sequence (Q16531 whole entry partner): as the sequence (Q16531 whole entry partner) above

SMILES: O=C1CCC(N2Cc3c(CN4CCN(c5nccc(Cl)c5Br)CC4)cccc3C2=S)C(=O)N1 (centres unmarked) [GT-08804, 3-(4-((4-(3-bromo-4-chloropyridin-2-yl)piperazin-1-yl)methyl)-1-thioxoisoindolin-2-yl)piperidine-2,6-dione]
- GSPT1 substrate protein remaining % (GSPT1): B (80%< substrate protein remaining %≤ 100%)
- IKZF3 substrate protein remaining % (IKZF3): B (80%< substrate protein remaining %≤ 100%)
- IKZF 1 substrate protein remaining % (IKZF1): B (80%< substrate protein remaining %≤ 100%)
- IKZF2 substrate protein remaining % (IKZF2): B (80%< substrate protein remaining %≤ 100%)
- Wee1 substrate protein remaining % (WEE1): A (0% ≤ substrate protein remaining % ≤ 80%)
- CK1α substrate protein remaining % (CK1α): B (80%< substrate protein remaining %≤ 100%)
- inhibition at 0.5 µM [1]: 40 to 53%
- inhibition at 2 µM [1]: 60 to 80%

SMILES: O=C1CCC(N2Cc3c(CN4CCN(c5c(Cl)cncc5Cl)CC4)cccc3C2=S)C(=O)N1 (centres unmarked) [GT-08805, 3-(4-((4-(3,5-dichloropyridin-4-yl)piperazin-1-yl)methyl)-1-thioxoisoindolin-2-yl)piperidine-2,6-dione]
- GSPT1 substrate protein remaining % (GSPT1): B (80%< substrate protein remaining %≤ 100%)
- IKZF3 substrate protein remaining % (IKZF3): B (80%< substrate protein remaining %≤ 100%)
- IKZF 1 substrate protein remaining % (IKZF1): B (80%< substrate protein remaining %≤ 100%)
- IKZF2 substrate protein remaining % (IKZF2): B (80%< substrate protein remaining %≤ 100%)
- Wee1 substrate protein remaining % (WEE1): A (0% ≤ substrate protein remaining % ≤ 80%)
- CK1α substrate protein remaining % (CK1α): B (80%< substrate protein remaining %≤ 100%)
- inhibition at 0.5 µM [1]: 60 to 80%
- inhibition at 2 µM [1]: 60 to 80%

SMILES: Cc1cc(N2CCN(Cc3cccc4c3CN(C3CCC(=O)NC3=O)C4=S)CC2)cc(C)n1 (centres unmarked) [GT-08806, 3-(4-((4-(2,6-dimethylpyridin-4-yl)piperazin-1-yl)methyl)-1-thioxoisoindolin-2-yl)piperidine-2,6-dione]
- GSPT1 substrate protein remaining % (GSPT1): B (80%< substrate protein remaining %≤ 100%)
- IKZF3 substrate protein remaining % (IKZF3): B (80%< substrate protein remaining %≤ 100%)
- IKZF 1 substrate protein remaining % (IKZF1): B (80%< substrate protein remaining %≤ 100%)
- IKZF2 substrate protein remaining % (IKZF2): B (80%< substrate protein remaining %≤ 100%)
- Wee1 substrate protein remaining % (WEE1): A (0% ≤ substrate protein remaining % ≤ 80%)
- CK1α substrate protein remaining % (CK1α): B (80%< substrate protein remaining %≤ 100%)
- inhibition at 0.5 µM [1]: 53 to 60%
- inhibition at 2 µM [1]: 80 to 100%

SMILES: O=C1CCC(N2Cc3c(CN4CCN(c5cc(Cl)nnc5Cl)CC4)cccc3C2=S)C(=O)N1 (centres unmarked) [GT-08807, 3-(4-((4-(3,6-dichloropyridazin-4-yl)piperazin-1-yl)methyl)-1-thioxoisoindolin-2-yl)piperidine-2,6-dione]
- GSPT1 substrate protein remaining % (GSPT1): B (80%< substrate protein remaining %≤ 100%)
- IKZF3 substrate protein remaining % (IKZF3): B (80%< substrate protein remaining %≤ 100%)
- IKZF 1 substrate protein remaining % (IKZF1): B (80%< substrate protein remaining %≤ 100%)
- IKZF2 substrate protein remaining % (IKZF2): B (80%< substrate protein remaining %≤ 100%)
- Wee1 substrate protein remaining % (WEE1): A (0% ≤ substrate protein remaining % ≤ 80%)
- CK1α substrate protein remaining % (CK1α): B (80%< substrate protein remaining %≤ 100%)
- inhibition at 0.5 µM [1]: 60 to 80%
- inhibition at 2 µM [1]: 80 to 100%

SMILES: O=C1CCC(N2Cc3c(CN4CCN(c5ncncn5)CC4)cccc3C2=S)C(=O)N1 (centres unmarked) [GT-08808, 3-(4-((4-(1,3,5-triazin-2-yl)piperazin-1-yl)methyl)-1-thioxoisoindolin-2-yl)piperidine-2,6-dione]
- GSPT1 substrate protein remaining % (GSPT1): B (80%< substrate protein remaining %≤ 100%)
- IKZF3 substrate protein remaining % (IKZF3): B (80%< substrate protein remaining %≤ 100%)
- IKZF 1 substrate protein remaining % (IKZF1): B (80%< substrate protein remaining %≤ 100%)
- IKZF2 substrate protein remaining % (IKZF2): B (80%< substrate protein remaining %≤ 100%)
- Wee1 substrate protein remaining % (WEE1): A (0% ≤ substrate protein remaining % ≤ 80%)
- CK1α substrate protein remaining % (CK1α): B (80%< substrate protein remaining %≤ 100%)
- inhibition at 0.5 µM [1]: 60 to 80%
- inhibition at 2 µM [1]: 80 to 100%

SMILES: O=C1CCC(N2Cc3c(CN4CCN(c5c(F)c(F)nc(F)c5F)CC4)cccc3C2=S)C(=O)N1 (centres unmarked) [GT-08809, 3-(4-((4-(perfluoropyridin-4-yl)piperazin-1-yl)methyl)-1-thioxoisoindolin-2-yl)piperidine-2,6-dione]
- GSPT1 substrate protein remaining % (GSPT1): A (0% ≤ substrate protein remaining % ≤ 80%)
- IKZF3 substrate protein remaining % (IKZF3): A (0% ≤ substrate protein remaining % ≤ 80%)
- IKZF 1 substrate protein remaining % (IKZF1): A (0% ≤ substrate protein remaining % ≤ 80%)
- IKZF2 substrate protein remaining % (IKZF2): A (0% ≤ substrate protein remaining % ≤ 80%)
- Wee1 substrate protein remaining % (WEE1): A (0% ≤ substrate protein remaining % ≤ 80%)
- CK1α substrate protein remaining % (CK1α): B (80%< substrate protein remaining %≤ 100%)
- inhibition at 0.5 µM [1]: 53 to 60%
- inhibition at 2 µM [1]: 80 to 100%

SMILES: O=C1CCC(N2Cc3c(CN4CCN(c5cccnn5)CC4)cccc3C2=S)C(=O)N1 (centres unmarked) [GT-08810, 3-(4-((4-(pyridazin-3-yl)piperazin-1-yl)methyl)-1-thioxoisoindolin-2-yl)piperidine-2,6-dione]
- GSPT1 substrate protein remaining % (GSPT1): B (80%< substrate protein remaining %≤ 100%)
- IKZF3 substrate protein remaining % (IKZF3): B (80%< substrate protein remaining %≤ 100%)
- IKZF 1 substrate protein remaining % (IKZF1): B (80%< substrate protein remaining %≤ 100%)
- IKZF2 substrate protein remaining % (IKZF2): B (80%< substrate protein remaining %≤ 100%)
- Wee1 substrate protein remaining % (WEE1): A (0% ≤ substrate protein remaining % ≤ 80%)
- CK1α substrate protein remaining % (CK1α): B (80%< substrate protein remaining %≤ 100%)
- inhibition at 0.5 µM [1]: 60 to 80%
- inhibition at 2 µM [1]: 80 to 100%

SMILES: O=C1CCC(N2Cc3c(CN4CCN(c5ccc(Cl)nn5)CC4)cccc3C2=S)C(=O)N1 (centres unmarked) [GT-08811, 3-(4-((4-(6-chloropyridazin-3-yl)piperazin-1-yl)methyl)-1-thioxoisoindolin-2-yl)piperidine-2,6-dione]
- GSPT1 substrate protein remaining % (GSPT1): A (0% ≤ substrate protein remaining % ≤ 80%)
- IKZF3 substrate protein remaining % (IKZF3): A (0% ≤ substrate protein remaining % ≤ 80%)
- IKZF 1 substrate protein remaining % (IKZF1): A (0% ≤ substrate protein remaining % ≤ 80%)
- IKZF2 substrate protein remaining % (IKZF2): A (0% ≤ substrate protein remaining % ≤ 80%)
- Wee1 substrate protein remaining % (WEE1): A (0% ≤ substrate protein remaining % ≤ 80%)
- CK1α substrate protein remaining % (CK1α): A (0% ≤ substrate protein remaining % ≤ 80%)
- inhibition at 0.5 µM [1]: 60 to 80%
- inhibition at 2 µM [1]: 80 to 100%

SMILES: O=C1CCC(N2Cc3c(CN4CCN(c5ncccn5)CC4)cccc3C2=S)C(=O)N1 (centres unmarked) [GT-08812, 3-(4-((4-(pyrimidin-2-yl)piperazin-1-yl)methyl)-1-thioxoisoindolin-2-yl)piperidine-2,6-dione]
- GSPT1 substrate protein remaining % (GSPT1): B (80%< substrate protein remaining %≤ 100%)
- IKZF3 substrate protein remaining % (IKZF3): B (80%< substrate protein remaining %≤ 100%)
- IKZF 1 substrate protein remaining % (IKZF1): B (80%< substrate protein remaining %≤ 100%)
- IKZF2 substrate protein remaining % (IKZF2): B (80%< substrate protein remaining %≤ 100%)
- Wee1 substrate protein remaining % (WEE1): A (0% ≤ substrate protein remaining % ≤ 80%)
- CK1α substrate protein remaining % (CK1α): B (80%< substrate protein remaining %≤ 100%)
- inhibition at 0.5 µM [1]: 60 to 80%
- inhibition at 2 µM [1]: 80 to 100%

SMILES: O=C1CCC(N2Cc3c(CN4CCN(c5cnccn5)CC4)cccc3C2=S)C(=O)N1 (centres unmarked) [GT-08813, 3-(4-((4-(pyrazin-2-yl)piperazin-1-yl)methyl)-1-thioxoisoindolin-2-yl)piperidine-2,6-dione]
- GSPT1 substrate protein remaining % (GSPT1): B (80%< substrate protein remaining %≤ 100%)
- IKZF3 substrate protein remaining % (IKZF3): B (80%< substrate protein remaining %≤ 100%)
- IKZF 1 substrate protein remaining % (IKZF1): B (80%< substrate protein remaining %≤ 100%)
- IKZF2 substrate protein remaining % (IKZF2): B (80%< substrate protein remaining %≤ 100%)
- Wee1 substrate protein remaining % (WEE1): A (0% ≤ substrate protein remaining % ≤ 80%)
- CK1α substrate protein remaining % (CK1α): B (80%< substrate protein remaining %≤ 100%)
- inhibition at 0.5 µM [1]: 60 to 80%
- inhibition at 2 µM [1]: 80 to 100%
